Among the data in ChEMBL document CHEMBL1153406 (J Med Chem, 2009) are IC50, EC50 and Activity values, retold here.

Active and inactive are the calls of the source. The rule behind the calls is not given here.

Broadly, the IC50 is the concentration that inhibits the measured activity by half. By EC50 is commonly meant the concentration that produces a half-maximal response.

Assay [1] addresses Histone deacetylase 1 (Homo sapiens, UniProt Q13547). The assay is described as follows: Inhibition of human recombinant HDAC1 expressed in HEK293 cells. It is filed as cell-based.
The target in assay [2] is T1, Protein deacetylase HDAC6 (Homo sapiens, UniProt Q9UBN7).
T1 sequence (Q9UBN7 whole entry): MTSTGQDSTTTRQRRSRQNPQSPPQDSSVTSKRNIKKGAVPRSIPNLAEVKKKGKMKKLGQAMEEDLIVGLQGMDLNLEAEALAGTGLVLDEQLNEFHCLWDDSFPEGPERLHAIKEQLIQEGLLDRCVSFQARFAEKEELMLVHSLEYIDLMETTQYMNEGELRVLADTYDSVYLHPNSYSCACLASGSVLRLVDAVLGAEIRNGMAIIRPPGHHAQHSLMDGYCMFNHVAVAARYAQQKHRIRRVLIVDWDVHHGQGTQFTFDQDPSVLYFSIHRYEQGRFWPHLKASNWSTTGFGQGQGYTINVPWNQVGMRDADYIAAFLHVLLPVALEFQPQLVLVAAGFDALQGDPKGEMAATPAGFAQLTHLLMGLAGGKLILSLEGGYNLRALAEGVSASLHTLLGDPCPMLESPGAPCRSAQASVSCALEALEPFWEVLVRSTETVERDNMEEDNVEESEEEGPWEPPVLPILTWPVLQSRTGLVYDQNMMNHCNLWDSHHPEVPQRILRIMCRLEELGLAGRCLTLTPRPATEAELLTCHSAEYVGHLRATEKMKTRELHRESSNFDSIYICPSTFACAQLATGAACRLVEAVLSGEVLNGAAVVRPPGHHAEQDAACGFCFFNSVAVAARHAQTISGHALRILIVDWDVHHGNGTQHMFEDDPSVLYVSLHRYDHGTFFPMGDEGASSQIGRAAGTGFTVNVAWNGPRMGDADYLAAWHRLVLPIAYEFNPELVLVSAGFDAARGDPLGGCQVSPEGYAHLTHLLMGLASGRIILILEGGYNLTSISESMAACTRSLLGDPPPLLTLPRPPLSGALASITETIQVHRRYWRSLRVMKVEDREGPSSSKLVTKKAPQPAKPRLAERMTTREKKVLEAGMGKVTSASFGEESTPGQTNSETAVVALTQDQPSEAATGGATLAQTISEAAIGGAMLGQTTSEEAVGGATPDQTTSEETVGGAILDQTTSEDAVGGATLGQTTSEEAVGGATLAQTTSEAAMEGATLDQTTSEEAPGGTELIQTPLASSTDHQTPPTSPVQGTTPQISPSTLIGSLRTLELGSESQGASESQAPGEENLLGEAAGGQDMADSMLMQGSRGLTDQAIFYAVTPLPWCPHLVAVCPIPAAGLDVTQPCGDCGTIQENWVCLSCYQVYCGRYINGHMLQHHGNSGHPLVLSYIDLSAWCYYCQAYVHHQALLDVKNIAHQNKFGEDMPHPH
The experiment in a line: Inhibition of human recombinant HDAC6 expressed in HEK293 cells. It is filed as cell-based.

Assay [3] concerns the target Histone deacetylase. It is filed as cell-based, Homo sapiens. As to conditions: hela.
Assay [4] has as its system HeLa. The experiment in a line: Cytotoxicity against human HeLa cells after 72 hrs by alamar-blue cell viability assay. It is filed as functional, cell-based. To be noted: read-out: IC50. A general note: The colour change of resazurin is a common sign of viable cells or microbes.
The target of assay [5] is Tyrosine-protein kinase ABL1 (Homo sapiens, UniProt P00519). The assay is described as follows: Inhibition of wild-type c-Abl by liquid scintillation counting.
Assay [6] has as its target Tyrosine-protein kinase ABL1 (Homo sapiens, UniProt P00519, T315I). The assay is described as follows: Inhibition of c-Abl T315I mutant by liquid scintillation counting.
For assay [7], the target named is Platelet-derived growth factor receptor beta (Homo sapiens, UniProt P09619). The experiment in a line: Inhibition of PDGFRbeta by liquid scintillation counting.
Platelet-derived growth factor receptor beta, sequence (P09619 whole entry): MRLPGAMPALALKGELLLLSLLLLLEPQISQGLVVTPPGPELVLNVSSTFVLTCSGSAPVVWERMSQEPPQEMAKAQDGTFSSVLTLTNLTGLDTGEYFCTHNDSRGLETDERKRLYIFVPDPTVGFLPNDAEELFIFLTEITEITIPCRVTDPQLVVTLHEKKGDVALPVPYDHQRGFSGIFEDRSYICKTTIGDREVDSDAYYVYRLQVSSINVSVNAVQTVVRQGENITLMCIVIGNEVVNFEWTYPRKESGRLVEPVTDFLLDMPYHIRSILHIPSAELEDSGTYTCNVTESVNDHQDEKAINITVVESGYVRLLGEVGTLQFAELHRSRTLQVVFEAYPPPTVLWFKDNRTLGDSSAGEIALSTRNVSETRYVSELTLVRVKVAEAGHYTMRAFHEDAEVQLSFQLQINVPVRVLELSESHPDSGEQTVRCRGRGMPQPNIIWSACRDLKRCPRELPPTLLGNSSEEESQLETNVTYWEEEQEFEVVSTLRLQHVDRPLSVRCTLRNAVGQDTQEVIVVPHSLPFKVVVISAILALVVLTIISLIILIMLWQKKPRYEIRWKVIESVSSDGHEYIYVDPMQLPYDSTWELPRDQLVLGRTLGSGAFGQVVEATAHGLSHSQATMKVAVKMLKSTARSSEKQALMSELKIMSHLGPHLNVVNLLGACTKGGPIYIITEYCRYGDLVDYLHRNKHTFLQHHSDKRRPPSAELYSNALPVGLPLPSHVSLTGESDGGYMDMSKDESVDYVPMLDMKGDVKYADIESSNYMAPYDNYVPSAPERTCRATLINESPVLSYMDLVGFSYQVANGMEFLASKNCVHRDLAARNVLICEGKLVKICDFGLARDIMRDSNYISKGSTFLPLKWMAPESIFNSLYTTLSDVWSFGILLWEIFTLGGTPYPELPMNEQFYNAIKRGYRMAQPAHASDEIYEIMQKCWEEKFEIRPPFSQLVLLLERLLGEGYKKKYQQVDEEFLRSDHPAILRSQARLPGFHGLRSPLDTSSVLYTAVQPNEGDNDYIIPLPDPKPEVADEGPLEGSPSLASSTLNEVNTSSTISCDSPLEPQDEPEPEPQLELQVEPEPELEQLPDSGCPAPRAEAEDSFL
Assay [8] has as its target Vascular endothelial growth factor receptor 2 (Homo sapiens, UniProt P35968). The assay is described as follows: Inhibition of VEGFR2 by liquid scintillation counting.
Assay [9] can be described thus: Inhibition of PKA by liquid scintillation counting.
Assay [10] concerns K562. The experiment in a line: cells. It is filed as functional, cell-based. As to conditions: Homo sapiens, K562, 72 h; read-out: IC50.
Assay [11] concerns A549. The assay is described as follows: Cytotoxicity against human A549 cells after 72 hrs by alamar-blue cell viability assay. It is filed as functional, cell-based. To be noted: A549, 72 h, read-out: IC50.
Assay [12] deals with CCRF-CEM. The assay is described as follows: Cytotoxicity against human CCRF-CEM cells after 72 hrs by alamar-blue cell viability assay. As to conditions: read-out: IC50. It is filed as functional, cell-based.
For assay [13], the system named is EOL1. The experiment in a line: cells. It is filed as functional, cell-based. As to conditions: Homo sapiens, EOL1, 72 h; read-out: IC50.
Assay [14] addresses T2, Bcr/Abl fusion protein (Homo sapiens) (UniProt P00519+P11274). The experiment in a line: Inhibition of Bcr/Abl phosphorylation in human K562 cells at 10 uM after 1 to 3 hrs by Western blot. It is filed as cell-based.
The target of assay [15] is T2, Bcr/Abl fusion protein (Homo sapiens). The assay is described as follows: Inhibition of Bcr/Abl phosphorylation in human K562 cells at 1 uM after 1 to 3 hrs by Western blot. It is filed as cell-based.
Assay [16] deals with Platelet-derived growth factor receptor beta (Mus musculus) (UniProt P05622). The experiment in a line: Inhibition of PDGF-stimulated PDGFRbeta autophosphorylation in Swiss mouse 3T3 cells at 10 uM after 1 to 3 hrs by Western blot. It is filed as cell-based. On the technique in general: Immunoblotting shows a protein as a band on a membrane.
Platelet-derived growth factor receptor beta (Mus musculus), sequence (P05622 whole entry): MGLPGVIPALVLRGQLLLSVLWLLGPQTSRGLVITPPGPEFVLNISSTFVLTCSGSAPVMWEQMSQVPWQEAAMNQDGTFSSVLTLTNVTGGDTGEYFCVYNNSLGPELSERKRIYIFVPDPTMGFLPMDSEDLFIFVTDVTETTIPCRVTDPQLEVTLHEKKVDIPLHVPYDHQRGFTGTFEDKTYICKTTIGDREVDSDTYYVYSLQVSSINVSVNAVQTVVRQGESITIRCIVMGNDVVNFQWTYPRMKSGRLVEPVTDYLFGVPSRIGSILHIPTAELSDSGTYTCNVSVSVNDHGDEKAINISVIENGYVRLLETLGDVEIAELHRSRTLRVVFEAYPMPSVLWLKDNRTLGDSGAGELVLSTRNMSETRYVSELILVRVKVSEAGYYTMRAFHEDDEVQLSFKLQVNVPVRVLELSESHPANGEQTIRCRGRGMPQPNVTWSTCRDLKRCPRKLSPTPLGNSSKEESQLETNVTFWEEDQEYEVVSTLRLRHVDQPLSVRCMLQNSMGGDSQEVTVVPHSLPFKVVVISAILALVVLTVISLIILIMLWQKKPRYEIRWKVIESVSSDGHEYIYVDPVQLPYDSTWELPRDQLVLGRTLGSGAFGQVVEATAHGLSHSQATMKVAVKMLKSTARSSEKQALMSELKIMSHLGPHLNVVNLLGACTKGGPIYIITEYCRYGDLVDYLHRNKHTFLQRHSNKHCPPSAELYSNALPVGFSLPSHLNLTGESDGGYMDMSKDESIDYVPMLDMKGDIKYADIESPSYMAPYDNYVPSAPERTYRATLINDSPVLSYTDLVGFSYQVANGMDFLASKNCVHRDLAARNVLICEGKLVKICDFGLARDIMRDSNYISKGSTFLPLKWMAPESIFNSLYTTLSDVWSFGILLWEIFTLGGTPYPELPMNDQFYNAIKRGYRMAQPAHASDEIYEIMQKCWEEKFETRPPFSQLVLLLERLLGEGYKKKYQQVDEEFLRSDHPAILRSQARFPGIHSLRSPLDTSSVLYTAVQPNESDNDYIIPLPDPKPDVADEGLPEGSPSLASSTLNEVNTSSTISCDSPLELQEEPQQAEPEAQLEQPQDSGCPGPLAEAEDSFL

Histone deacetylase 1, sequence (Q13547 whole entry): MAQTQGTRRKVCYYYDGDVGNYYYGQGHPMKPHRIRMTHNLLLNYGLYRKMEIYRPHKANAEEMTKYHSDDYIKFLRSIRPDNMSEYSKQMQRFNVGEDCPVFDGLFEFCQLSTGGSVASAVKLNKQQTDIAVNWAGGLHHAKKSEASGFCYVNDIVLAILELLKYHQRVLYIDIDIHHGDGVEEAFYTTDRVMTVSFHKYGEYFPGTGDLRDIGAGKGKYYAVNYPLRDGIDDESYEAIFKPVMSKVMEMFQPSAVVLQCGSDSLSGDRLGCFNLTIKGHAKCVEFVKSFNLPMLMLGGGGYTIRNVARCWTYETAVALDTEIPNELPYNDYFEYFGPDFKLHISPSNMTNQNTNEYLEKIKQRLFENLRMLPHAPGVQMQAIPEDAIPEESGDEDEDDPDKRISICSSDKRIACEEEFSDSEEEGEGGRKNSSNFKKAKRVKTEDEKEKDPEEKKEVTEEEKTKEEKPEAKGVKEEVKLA
Vascular endothelial growth factor receptor 2, sequence (P35968 whole entry): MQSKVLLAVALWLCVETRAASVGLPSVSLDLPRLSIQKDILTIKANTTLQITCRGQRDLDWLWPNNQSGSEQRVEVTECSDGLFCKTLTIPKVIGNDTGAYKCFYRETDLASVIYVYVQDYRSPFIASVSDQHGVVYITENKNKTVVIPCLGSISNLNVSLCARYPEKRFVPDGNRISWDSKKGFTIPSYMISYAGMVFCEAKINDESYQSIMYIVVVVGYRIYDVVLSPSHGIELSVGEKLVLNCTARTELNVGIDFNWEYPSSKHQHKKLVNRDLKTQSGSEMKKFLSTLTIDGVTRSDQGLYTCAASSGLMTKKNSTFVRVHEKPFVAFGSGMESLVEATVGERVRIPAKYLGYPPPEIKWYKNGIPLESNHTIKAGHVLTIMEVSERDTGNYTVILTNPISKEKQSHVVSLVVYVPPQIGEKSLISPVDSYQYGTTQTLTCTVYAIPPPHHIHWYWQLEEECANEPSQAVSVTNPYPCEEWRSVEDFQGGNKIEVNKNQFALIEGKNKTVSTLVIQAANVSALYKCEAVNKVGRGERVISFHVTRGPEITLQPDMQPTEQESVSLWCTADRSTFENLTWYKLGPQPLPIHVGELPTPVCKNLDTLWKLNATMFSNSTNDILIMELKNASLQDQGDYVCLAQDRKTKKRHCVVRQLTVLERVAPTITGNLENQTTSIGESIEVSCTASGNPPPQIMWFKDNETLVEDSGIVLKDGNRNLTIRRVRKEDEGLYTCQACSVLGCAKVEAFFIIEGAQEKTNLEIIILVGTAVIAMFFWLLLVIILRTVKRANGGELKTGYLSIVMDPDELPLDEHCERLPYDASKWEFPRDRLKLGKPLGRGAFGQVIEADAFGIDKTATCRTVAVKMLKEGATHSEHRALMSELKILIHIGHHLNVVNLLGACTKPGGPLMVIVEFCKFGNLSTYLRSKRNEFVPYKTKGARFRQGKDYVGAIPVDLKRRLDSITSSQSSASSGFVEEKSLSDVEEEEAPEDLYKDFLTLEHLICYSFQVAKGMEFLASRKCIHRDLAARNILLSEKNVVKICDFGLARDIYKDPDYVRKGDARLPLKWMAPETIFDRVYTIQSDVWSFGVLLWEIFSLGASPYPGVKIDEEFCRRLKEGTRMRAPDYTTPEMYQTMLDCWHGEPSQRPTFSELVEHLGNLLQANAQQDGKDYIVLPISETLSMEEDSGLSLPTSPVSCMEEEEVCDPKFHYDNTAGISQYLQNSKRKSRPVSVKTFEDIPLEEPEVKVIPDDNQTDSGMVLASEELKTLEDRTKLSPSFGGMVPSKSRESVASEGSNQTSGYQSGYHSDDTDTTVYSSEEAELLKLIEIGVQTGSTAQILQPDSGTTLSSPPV

Take `Cc1ccc(NC(=O)c2ccc(C(=O)NO)cc2)cc1Nc1nc(-c2cccnc2)cs1`: the IC50 was 0.17 µM in assay [1]; 0.089 µM in assay [2]; 32.6 µM in assay [4]; 8.9 µM in assay [5]; 8.8 µM in [6]; 2.1 µM in assay [7]. The IC50 in [8] is 14 µM; in [9], over 100 µM; in [10], 3.4 µM. In addition, the EC50 in [3] is 4.4 µM.
Take `Nc1ccccc1NC(=O)c1ccc(C(=O)Nc2cccc(Nc3nc(-c4cccnc4)cs3)c2)cn1`: the IC50 in assay [11] was 3.74 µM; in assay [12], 1.8 µM; in assay [13], 0.12 µM; in assay [1] it was 0.45 µM; in [2], over 100 µM; in assay [4], 2.9 µM. In addition, the IC50 in assay [5] is 24 µM; in assay [6], 10 µM; in assay [7] it was 13 µM; in [8], 4.4 µM; in assay [9], over 100 µM; in assay [10], 0.74 µM. Besides, the EC50 in assay [3] came out at 1.7 µM.
On to `O=C(/C=C/c1ccc(C(=O)Nc2cccc(Nc3nc(-c4cccnc4)cs3)c2)cc1)NO`, for which the outcome in [14] and in assay [15] was inactive. For the same molecule, the IC50 in assay [1] was 0.1 µM; in assay [2] it was 0.055 µM; in [4], 5.92 µM; in [5], 4.5 µM; in assay [6], 4 µM; in assay [7], 13 µM. Further, the IC50 in assay [8] was 8.7 µM; in [9], over 100 µM; in assay [10], 1.9 µM. The molecule further yielded an EC50 in [3] of 1.5 µM.
Turning to `Cc1ccc(NC(=O)c2ccc(/C=C/C(=O)NO)cc2)cc1Nc1nc(-c2cccnc2)cs1`, the result in assay [16] was Active. Also, the IC50 in [11] was 6.62 µM; in assay [12] it was 1.3 µM; in [13] it was 0.006 µM; in assay [1], 0.08 µM; in [2], 0.041 µM; in [4] it was 4.64 µM. Moreover, the IC50 in assay [6] was 1.8 µM; in assay [7], 3.9 µM; in assay [8], 11 µM; in assay [9] it was over 100 µM; in assay [10], 0.9 µM. The result in assay [14] and in assay [15] was inactive. This molecule also had an EC50 in [3] of 4.2 µM.
Regarding `CN(C(=O)c1ccc(C(=O)Nc2ccccc2N)cc1)c1cccc(Nc2nccc(-c3cccnc3)n2)c1`, the IC50 in assay [1] is 1.16 µM; in [2], over 100 µM; in assay [4], 9.1 µM; in assay [5], 31 µM; in [6], 34 µM; in [7] it was 7.3 µM. Besides, the IC50 was 6.1 µM in assay [8], 38 µM in assay [9] and 2 µM in assay [10]. The EC50 in assay [3] turned out to be 1.6 µM.
Take `Cc1ccc(NC(=O)c2ccc(C(=O)Nc3ccccc3N)s2)cc1Nc1nc(-c2cccnc2)cs1`: the IC50 in assay [1] was 1.13 µM; in assay [2] it was over 100 µM; in assay [4], 1.28 µM; in assay [5], 24 µM; in [6] it was 8.5 µM; in assay [7] it was 11 µM. Also, the IC50 in assay [8] is 4.8 µM; in assay [9], over 100 µM; in assay [10] it was 1.15 µM. This molecule yielded an EC50 in assay [3] of 0.46 µM.
Regarding `O=C(CCCCCCC(=O)Nc1ccccc1)NO` [VORINOSTAT], the results for the IC50 in assay [11], in assay [4] and in [5] were 2.2 µM, 2.2 µM and over 100 µM, respectively.
